≈ marks a conversion by molar mass, not a printed value.
Assays:
Experiment in all cases: in vitro antibacterial evaluation, MIC by broth dilution
Format in all cases: cell-based
[1] = system: Escherichia coli; settings: 18 hours at 35° C.
[2] = system: Streptococcus sp.; settings: broth dilution, 18 hours at 35° C.
Method in brief: (§1)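 Following National Committee for Clinical Laboratory Standards recommendations (M7-A2), susceptibility was measured by dilution in Muller-Hinton II […]. Bacteria were seeded at 5×10^5 CFU/mL against compound concentrations from 64 down to 0.06 μg/mL.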

[3] = system: Enterococcus sp.; settings: broth dilution, 18 hours at 35° C.
Method in brief: as §1

[4] = system: Staphylococcus sp.; settings: broth dilution, 18 hours at 35° C.; for MIC Staphylococcus aureus (GC 1131): strain GC 1131
Method in brief: as §1

## CC(c1ccccc1)C1NC(=O)CNC(=O)C(CO)NC(=O)C(C(O)C2CNC(=N)N2C2OC(CO)C(O)C(O)C2O)NC(=O)C(C(O)C2CNC(=N)N2)NC(=O)C(Cc2ccc(OC3OC(CO)C(OC4OC5COC(c6ccc(C(=O)c7ccc(I)cc7)cc6)OC5C(O)C4O)C(O)C3O)cc2)NC1=O (centres unmarked) [Example 186]
[1]
  MIC Escherichia coli (ATCC 25922): 64 µg/mL (≈ 39.7 µM)
  MIC Escherichia coli (GC 4559): 64 µg/mL (≈ 39.7 µM)
  MIC Escherichia coli (GC 4560): 4 µg/mL (≈ 2.48 µM)
[2]
  MIC Streptococcus agalactiae (GC 4564): <0.06 µg/mL
  MIC Streptococcus pneumoniae (ATCC 6301): <0.06 µg/mL
  MIC Streptococcus pneumoniae (GC 1894): <0.06 µg/mL
  MIC Streptococcus pneumoniae (GC 4565): <0.06 µg/mL
  MIC Streptococcus pyogenes (GC 4563): 0.25 µg/mL (≈ 0.155 µM)
[2]; inoculum 5×10^5 CFU/mL, strain ATCC 6301
  MIC Streptococcus pneumoniae (ATCC 6301): <0.06 µg/mL
[2]; inoculum 5×10^5 CFU/mL, strain GC 1894
  MIC Streptococcus pneumoniae (GC 1894): <0.06 µg/mL
[2]; inoculum 5×10^5 CFU/mL, strain GC 4563
  MIC Streptococcus pyogenes (GC 4563): 0.25 µg/mL (≈ 0.155 µM)
[2]; inoculum 5×10^5 CFU/mL, strain GC 4564
  MIC Streptococcus agalactiae (GC 4564): <0.06 µg/mL
[2]; inoculum 5×10^5 CFU/mL, strain GC 4565
  MIC Streptococcus pneumoniae (GC 4565): <0.06 µg/mL
[3]
  MIC Enterococcus avium (GC 4558): 2 µg/mL (≈ 1.24 µM)
  MIC Enterococcus faecalis (ATCC 29212): 2 µg/mL (≈ 1.24 µM)
  MIC Enterococcus faecalis (GC 2242): 2 µg/mL (≈ 1.24 µM)
  MIC Enterococcus faecalis (GC 2691): 2 µg/mL (≈ 1.24 µM)
  MIC Enterococcus faecalis (GC 3059): 2 µg/mL (≈ 1.24 µM)
  MIC Enterococcus faecalis (GC 4552): 2 µg/mL (≈ 1.24 µM)
  MIC Enterococcus faecalis (GC 4553): 2 µg/mL (≈ 1.24 µM)
  MIC Enterococcus faecalis (GC 4554): 2 µg/mL (≈ 1.24 µM)
  MIC Enterococcus faecalis (GC 6189): 1 µg/mL (≈ 0.62 µM)
  MIC Enterococcus faecium (GC 2243): 2 µg/mL (≈ 1.24 µM)
  MIC Enterococcus faecium (GC 4556): 2 µg/mL (≈ 1.24 µM)
  MIC Enterococcus faecium (GC 4557): 2 µg/mL (≈ 1.24 µM)
[3]; inoculum 5×10^5 CFU/mL, strain ATCC 29212
  MIC Enterococcus faecalis (ATCC 29212): 2 µg/mL (≈ 1.24 µM)
[3]; inoculum 5×10^5 CFU/mL, strain GC 2242
  MIC Enterococcus faecalis (GC 2242): 2 µg/mL (≈ 1.24 µM)
[3]; inoculum 5×10^5 CFU/mL, strain GC 2243
  MIC Enterococcus faecium (GC 2243): 2 µg/mL (≈ 1.24 µM)
[3]; inoculum 5×10^5 CFU/mL, strain GC 2691
  MIC Enterococcus faecalis (GC 2691): 2 µg/mL (≈ 1.24 µM)
[3]; inoculum 5×10^5 CFU/mL, strain GC 3059
  MIC Enterococcus faecalis (GC 3059): 2 µg/mL (≈ 1.24 µM)
[3]; inoculum 5×10^5 CFU/mL, strain GC 4552
  MIC Enterococcus faecalis (GC 4552): 2 µg/mL (≈ 1.24 µM)
[3]; inoculum 5×10^5 CFU/mL, strain GC 4553
  MIC Enterococcus faecalis (GC 4553): 2 µg/mL (≈ 1.24 µM)
[3]; inoculum 5×10^5 CFU/mL, strain GC 4554
  MIC Enterococcus faecalis (GC 4554): 2 µg/mL (≈ 1.24 µM)
[3]; inoculum 5×10^5 CFU/mL, strain GC 4556
  MIC Enterococcus faecium (GC 4556): 2 µg/mL (≈ 1.24 µM)
[3]; inoculum 5×10^5 CFU/mL, strain GC 4557
  MIC Enterococcus faecium (GC 4557): 2 µg/mL (≈ 1.24 µM)
[3]; inoculum 5×10^5 CFU/mL, strain GC 4558
  MIC Enterococcus avium (GC 4558): 2 µg/mL (≈ 1.24 µM)
[3]; inoculum 5×10^5 CFU/mL, strain GC 6189
  MIC Enterococcus faecalis (GC 6189): 1 µg/mL (≈ 0.62 µM)
[4]; inoculum 5×10^5 CFU/mL
  MIC Staphylococcus aureus (GC 1131): 2 µg/mL (≈ 1.24 µM)
[4]; strain ATCC 29213
  MIC Staphylococcus aureus (ATCC 29213): 2 µg/mL (≈ 1.24 µM)
[4]
  MIC Staphylococcus aureus (GC 1131): 2 µg/mL (≈ 1.24 µM)
[4]; strain GC 3051
  MIC Staphylococcus aureus (GC 3051): 2 µg/mL (≈ 1.24 µM)
[4]; strain GC 3053
  MIC Staphylococcus aureus (GC 3053): 2 µg/mL (≈ 1.24 µM)
[4]; strain GC 4541
  MIC Staphylococcus aureus (GC 4541): 2 µg/mL (≈ 1.24 µM)
[4]; strain GC 4542
  MIC Staphylococcus aureus (GC 4542): 1 µg/mL (≈ 0.62 µM)
[4]; strain GC 4543
  MIC Staphylococcus aureus-SMITH (GC 4543): 2 µg/mL (≈ 1.24 µM)
[4]; strain GC 4544
  MIC Staphylococcus aureus (GC 4544): 2 µg/mL (≈ 1.24 µM)
[4]; strain GC 4545
  MIC Staphylococcus aureus (GC 4545): 2 µg/mL (≈ 1.24 µM)
[4]; strain GC 4546
  MIC Staphylococcus haemolyticus (GC 4546): 1 µg/mL (≈ 0.62 µM)
[4]; strain GC 4547
  MIC Coagulase Negative Staphylococcus (GC 4547): 2 µg/mL (≈ 1.24 µM)
[4]; strain GC 4548
  MIC Coagulase Negative Staphylococcus (GC 4548): 1 µg/mL (≈ 0.62 µM)
[4]; strain GC 4549
  MIC Coagulase Negative Staphylococcus (GC 4549): 1 µg/mL (≈ 0.62 µM)
[4]; strain GC 4551
  MIC Coagulase Negative Staphylococcus (GC 4551): 2 µg/mL (≈ 1.24 µM)
[4]; strain GC 6257
  MIC Coagulase Negative Staphylococcus (GC 6257): 0.5 µg/mL (≈ 0.31 µM)
